The test system of data set [1] is CCRF‐CEM (acute lymphoblastic leukemia). Put plainly: Cytotoxic activity against CCRF-CEM. The class given is cell-based. As to conditions: Homo sapiens, average of at least three independent experiments. As for the experimental part:
(§1) Finally, the amino‐BODIPY 16 and all prepared conjugates 1–15 were tested for cytotoxic activity against selected cancer cell lines (Table 1). The tests were performed on cancer cell lines derived from solid tumors as well as hematological malignancies: CCRF‐CEM (acute lymphoblastic leukemia), K562 (chronic myeloid leukemia), A549 (lung adenocarcinoma), colorectal carcinoma cell lines HCT116 with and without functional p53 protein HCT116p53, respectively. The panel also included chemoresistant subclone CCRF‐CEM‐DNR (resistant to daunorubicine) overexpressing P‐glycoprotein and/or lung resistance‐related protein (LRP), which are pumps or detoxifying systems responsible for the most common forms of clinical resistance. To evaluate non‐tumor cells′ toxicity, we used human skin fibroblast cell line BJ and lung fibroblast cell line MRC‐5. […] This dye is also slightly toxic to normal fibroblast BJ and MRC with IC50>40 μM and low‐density seeding variants BJ‐LD and MRC‐LD with higher proliferation and no contact inhibition. Connection of amino‐BODIPY 16 with 3‐HQs via non‐cleavable maleimide linker (conjugates 6–10) as well as via cleavable linker (compounds 11–15) causes higher selectivity toward CCRF‐CEM lines. […] The selectivity of conjugates toward leukemia cells could be caused by interaction with a specific target for the CCRF‐CEM or K562 cells, respectively, or by particular transport to these cell lines. The later reason could explain the lower toxicity of amino‐BODIPY released from the conjugate compared to free amino‐BODIPY 16 directly applied to the cells.

In data set [2] the test system is CCRF‐CEM‐DNR (resistant to daunorubicine). Put plainly: Cytotoxic activity against CEM-DNR. The class given is cell-based. As to conditions: Homo sapiens, daunorubicine-resistant subclone, average of at least three independent experiments. Here is the method:
as §1

Data set [3] concerns K562 (chronic myeloid leukemia). In words: Cytotoxic activity against K562. As to conditions: Homo sapiens, average of at least three independent experiments. The class given is cell-based. As for the experimental part:
as §1

A further data set deals with K562‐TAX. In words: Cytotoxic activity against K562-TAX. As to conditions: average of at least three independent experiments. In kind it is cell-based.
Data set [4] relates to A549 (lung adenocarcinoma). In words: Cytotoxic activity against A549. The class given is cell-based. As to conditions: Homo sapiens, average of at least three independent experiments. Here is the method: as §1
Data set [5] has as its system HCT116 (colorectal carcinoma). In words: Cytotoxic activity against HCT116. The class given is cell-based. As to conditions: Homo sapiens, HCT-116; average of at least three independent experiments. As for the experimental part:
as §1

The subject of data set [6] is HCT116p53 (colorectal carcinoma). In words: Cytotoxic activity against HCT116p53. In kind it is cell-based. As to conditions: average of at least three independent experiments. Here is the method:
as §1

The test system of another data set is U2OS. Put plainly: Cytotoxic activity against U2OS. The class given is cell-based. As to conditions: Homo sapiens, average of at least three independent experiments.
Data set [7] concerns skin fibroblast cell line BJ. Put plainly: Toxicity to non-tumor fibroblasts BJ. The class given is cell-based, human. As for the experimental part:
as §1

The test system of data set [8] is BJ‐LD (low‐density seeding variant). Put plainly: Toxicity to non-tumor fibroblasts BJ-LD. As to conditions: Homo sapiens, Fibroblast, higher proliferation, no contact inhibition. In kind it is cell-based. Here is the method:
as §1

Data set [9] relates to lung fibroblast cell line MRC‐5. Put plainly: Toxicity to non-tumor fibroblasts MRC. In kind it is cell-based, human. Here is the method:
as §1

The subject of data set [10] is MRC‐LD (low‐density seeding variant). In words: Toxicity to non-tumor fibroblasts MRC-LD. The class given is cell-based. As to conditions: Homo sapiens, Fibroblast, higher proliferation, no contact inhibition. Here is the method:
as §1

For another data set, the system named is cancer cell lines. As to conditions: cited from earlier work.
[11] abbreviates: Homo sapiens, MRC5, non-tumor lung fibroblasts.

These results are taken from article PMC8562313, “Cytotoxicity of Amino‐BODIPY Modulated via Conjugation with 2‐Phenyl‐3‐Hydroxy‐4(1H)‐Quinolinones” (ChemistryOpen, 2021).

Like-named read-outs stand apart in the source and are kept apart here.

Take `Cc1cc(C)n2c1C=C1C=CC(NC(=O)OCCCN3C(=O)CC(SCC(NC(=O)c4ccc5c(=O)c(O)c(-c6cc(Cl)c(N)c(Cl)c6)[nH]c5c4)C(N)=O)C3=O)=[N+]1[B-]2(F)F` (centres unmarked) [Compound 8]: the IC50 in [1] was 12.7 µM; in data set [2] it was above 50 µM; in data set [3], above 50 µM; in the data set on K562‐TAX, above 50 µM; in data set [4], above 50 µM; in data set [5] it was above 50 µM. Moreover, the 50% inhibitory concentration (IC50) in data set [6] was above 50 µM; with U2OS, above 50 µM; in data set [7] (Homo sapiens, Skin fibroblast) it was above 50 µM; in data set [8] it was above 50 µM; in data set [9] (setting [11]), above 50 µM; in [10], above 50 µM.

Regarding `Cc1cc(C)n2c1C=C1C=CC(NC(=O)OCCSSCC(NC(=O)c3ccc4c(=O)c(O)c(-c5ccc(N6CCCCC6)c(C(N)=O)c5)[nH]c4c3)C(N)=O)=[N+]1[B-]2(F)F` (centres unmarked) [Compound 15], the IC50 was above 50 µM in data set [1]; 46.2 µM in data set [2]; above 50 µM in data set [3]; 46.2 µM in the data set with K562‐TAX; above 50 µM in [4]; above 50 µM in data set [5]. In addition, the IC50 in data set [6] is above 50 µM; with U2OS, above 50 µM; in data set [7] (Homo sapiens, Skin fibroblast) it was above 50 µM; in data set [8], above 50 µM; in data set [9] (setting [11]), above 50 µM; in [10] it was above 50 µM.

For `Nc1c(Cl)cc(-c2[nH]c3ccccc3c(=O)c2O)cc1Cl` [2‐(4‐amino‐3,5‐dichlorophenyl)‐3‐hydroxy‐4(1H)‐quinolinone], the “Activity against various cancer cell lines” value with cancer cell lines (reported previously, no reference given) is “active”.

For `Cc1cc(C)n2c1C=C1C=CC(NC(=O)OCCSSCC(NC(=O)c3ccc4c(=O)c(O)c(-c5ccccc5)[nH]c4c3)C(N)=O)=[N+]1[B-]2(F)F` (centres unmarked) [Compound 11], the IC50 was 19.7 µM in data set [1]; 34.4 µM in data set [2]; 49.8 µM in data set [3]; 39.8 µM in the data set on K562‐TAX; 49.9 µM in [4]; above 50 µM in data set [5]. In addition, the IC50 in [6] is above 50 µM; in the data set on U2OS, above 50 µM; in data set [7] (Homo sapiens, Skin fibroblast) it was above 50 µM; in data set [8] it was above 50 µM; in data set [9] (setting [11]) it was above 50 µM; in data set [10], above 50 µM.

As for `Cc1cc(C)n2c1C=C1C=CC(NC(=O)OCCSSCC(NC(=O)c3ccc4c(=O)c(O)c(-c5ccc(F)cc5)[nH]c4c3)C(N)=O)=[N+]1[B-]2(F)F` (centres unmarked) [Compound 12], the IC50 in data set [1] is 8.14 µM; in data set [2] it was 26.5 µM; in data set [3] it was 44.6 µM; with K562‐TAX, 33.6 µM; in data set [4], 46.4 µM; in [5], above 50 µM. In addition, the IC50 in data set [6] is 49.8 µM; in the data set with U2OS, 42.3 µM; in data set [7] (Homo sapiens, Skin fibroblast), above 50 µM; in data set [8] it was above 50 µM; in data set [9] (setting [11]) it was above 50 µM; in [10], above 50 µM.

Regarding `Cc1cc(C)n2c1C=C1C=CC(NC(=O)OCCSSCC(NC(=O)c3ccc4c(=O)c(O)c(-c5cc(Cl)c(N)c(Cl)c5)[nH]c4c3)C(N)=O)=[N+]1[B-]2(F)F` (centres unmarked) [Compound 13], the IC50 in data set [1] is 2.59 µM; in [2] it was 40.1 µM; in data set [3] it was 41.4 µM; in the data set on K562‐TAX it was 41.8 µM; in data set [4], above 50 µM; in data set [5], above 50 µM. The IC50 was above 50 µM in data set [6]; above 50 µM in the data set on U2OS; above 50 µM in data set [7] (Homo sapiens, Skin fibroblast); above 50 µM in [8]; above 50 µM in data set [9] (setting [11]); above 50 µM in data set [10].

For `Cc1cc(C)n2c1C=C1C=CC(NC(=O)OCCCN3C(=O)CC(SCC(NC(=O)c4ccc5c(=O)c(O)c(-c6ccc(F)cc6)[nH]c5c4)C(N)=O)C3=O)=[N+]1[B-]2(F)F` (centres unmarked) [Compound 7], the IC50 in data set [1] was 6.37 µM; in [2], above 50 µM; in data set [3], above 50 µM; with K562‐TAX it was above 50 µM; in data set [4], above 50 µM; in [5], above 50 µM. Moreover, the half-maximal inhibitory concentration (IC50) in data set [6] is above 50 µM; in the data set with U2OS, above 50 µM; in [7] (Homo sapiens, Skin fibroblast), above 50 µM; in data set [8], above 50 µM; in [9] (setting [11]), above 50 µM; in data set [10], above 50 µM.

For the molecule `Cc1cc(C)n2c1C=C1C=CC(NC(=O)OCCSSCC(NC(=O)c3ccc4c(=O)c(O)c(-c5ccc(N6CCCCC6)c([N+](=O)[O-])c5)[nH]c4c3)C(N)=O)=[N+]1[B-]2(F)F` (centres unmarked) [Compound 14], the IC50 in data set [1] was 1.52 µM; in data set [2] it was 37.9 µM; in data set [3] it was 29.9 µM; in the data set with K562‐TAX, 40.6 µM; in [4], 46.3 µM; in data set [5], 39.7 µM. Further, the 50% inhibitory concentration (IC50) in data set [6] was 42.6 µM; in the data set with U2OS, 44.1 µM; in data set [7] (Homo sapiens, Skin fibroblast), above 50 µM; in data set [8], above 50 µM; in data set [9] (setting [11]), above 50 µM; in [10], above 50 µM.

Turning to `Cc1cc(C)n2c1C=C1C=CC(N)=[N+]1[B-]2(F)F` [Compound 16, amino‐BODIPY], the concentration for half-maximal inhibition (IC50) was 4.25 µM in data set [1]; 5.08 µM in data set [2]; 3.29 µM in [3]; 6.41 µM with K562‐TAX; 47.2 µM in [4]; 11.6 µM in [5]. Moreover, the IC50 was 12.7 µM in data set [6]; 19.8 µM in the data set on U2OS; 49.7 µM in data set [7]; above 40 µM in data set [7] (Homo sapiens, Skin fibroblast); 28.1 µM in data set [8]; above 40 µM in data set [9] (setting [11]). The IC50 is 40.1 µM in data set [9] (non-tumor lung fibroblasts) and 26.9 µM in data set [10].

Regarding `O=c1c(O)c(-c2ccc(N3CCCCC3)c([N+](=O)[O-])c2)[nH]c2ccccc12` [2‐(3‐nitro‐4‐piperid‐1‐ylphenyl)‐3‐hydroxy‐4(1H)‐quinolinone], in the data set with cancer cell lines, the “Activity and selectivity against cancer cell lines” value is given as “significant activity but low selectivity”.

As for `Cc1cc(C)n2c1C=C1C=CC(NC(=O)OCCCN3C(=O)CC(SCC(NC(=O)c4ccc5c(=O)c(O)c(-c6ccccc6)[nH]c5c4)C(N)=O)C3=O)=[N+]1[B-]2(F)F` (centres unmarked) [Compound 6], the IC50 was 14.6 µM in data set [1]; above 50 µM in [2]; above 50 µM in data set [3]; above 50 µM in the data set on K562‐TAX; above 50 µM in data set [4]; above 50 µM in [5]. For the same molecule, the IC50 was above 50 µM in data set [6]; above 50 µM with U2OS; above 50 µM in data set [7] (Homo sapiens, Skin fibroblast); above 50 µM in [8]; above 50 µM in [9] (setting [11]); above 50 µM in data set [10].

In the case of `O=c1c(O)c(-c2ccccc2)[nH]c2ccccc12` [2‐phenyl‐3‐hydroxy‐4(1H)‐quinolinone], in the data set on cancer cell lines, the “Activity against cancer cells” value is reported as “no activity”.

Take `Cc1cc(C)n2c1C=C1C=CC(NC(=O)OCCCN3C(=O)CC(SCC(NC(=O)c4ccc5c(=O)c(O)c(-c6ccc(N7CCCCC7)c(C(N)=O)c6)[nH]c5c4)C(N)=O)C3=O)=[N+]1[B-]2(F)F` (centres unmarked) [Compound 10]: the IC50 in data set [1] is 5.1 µM; in data set [2], above 50 µM; in data set [3], above 50 µM; in the data set on K562‐TAX, 49.6 µM; in data set [4] it was above 50 µM; in data set [5], above 50 µM. Moreover, the 50% inhibitory concentration (IC50) in data set [6] was above 50 µM; in the data set with U2OS, above 50 µM; in data set [7] (Homo sapiens, Skin fibroblast) it was above 50 µM; in data set [8], above 50 µM; in data set [9] (setting [11]), above 50 µM; in data set [10], above 50 µM.

For `Cc1cc(C)n2c1C=C1C=CC(NC(=O)OCCCN3C(=O)CC(SCC(NC(=O)c4ccc5c(=O)c(O)c(-c6ccc(N7CCCCC7)c([N+](=O)[O-])c6)[nH]c5c4)C(N)=O)C3=O)=[N+]1[B-]2(F)F` (centres unmarked) [Compound 9], the IC50 in [1] was above 50 µM; in [2] it was above 50 µM; in data set [3], 4.05 µM; with K562‐TAX, above 50 µM; in data set [4] it was above 50 µM; in [5] it was above 50 µM. Further, the IC50 in [6] is above 50 µM; in the data set with U2OS, above 50 µM; in data set [7] (Homo sapiens, Skin fibroblast) it was above 50 µM; in data set [9] (setting [11]), above 50 µM.

With `O=c1c(O)c(-c2ccc(F)cc2)[nH]c2ccccc12` [2‐(4‐fluorophenyl)‐3‐hydroxy‐4(1H)‐quinolinone], the “Cytotoxicity against cancer cells” value in the data set on cancer cell lines is listed as “low cytotoxicity”.

As to `NC(=O)c1cc(-c2[nH]c3ccccc3c(=O)c2O)ccc1N1CCCCC1` [2‐(3‐carboxamide‐4‐piperid‐1‐ylphenyl)‐3‐hydroxy‐4(1H)‐quinolinone], in the data set with cancer cell lines, the “Activity and selectivity toward cancer cells” value is “significant activity and increased selectivity”.

The term IC50 denotes the point on the concentration scale where inhibition reaches its midpoint. Read a high IC50 as weaker potency.
